From patent US20050164951A1, “Inhibitors for the soluble epoxide hydrolase” (The Regents of the University of California, priority 2003, published 2005)
Read-outs that look alike come from different tables or passages of the source.

Experiments:
human sEH = molecular target: T1, human sEH (Homo sapiens, UniProt P34913); assay: Inhibition of recombinant human sEH, IC50 assay with 4-nitrophenyl-trans-2,3-epoxy-3-phenylpropyl carbonate as substrate; type: biochemical
T1 construct: made in house; host or cells: baculovirus expression system
T1 sequence (P34913 1-555): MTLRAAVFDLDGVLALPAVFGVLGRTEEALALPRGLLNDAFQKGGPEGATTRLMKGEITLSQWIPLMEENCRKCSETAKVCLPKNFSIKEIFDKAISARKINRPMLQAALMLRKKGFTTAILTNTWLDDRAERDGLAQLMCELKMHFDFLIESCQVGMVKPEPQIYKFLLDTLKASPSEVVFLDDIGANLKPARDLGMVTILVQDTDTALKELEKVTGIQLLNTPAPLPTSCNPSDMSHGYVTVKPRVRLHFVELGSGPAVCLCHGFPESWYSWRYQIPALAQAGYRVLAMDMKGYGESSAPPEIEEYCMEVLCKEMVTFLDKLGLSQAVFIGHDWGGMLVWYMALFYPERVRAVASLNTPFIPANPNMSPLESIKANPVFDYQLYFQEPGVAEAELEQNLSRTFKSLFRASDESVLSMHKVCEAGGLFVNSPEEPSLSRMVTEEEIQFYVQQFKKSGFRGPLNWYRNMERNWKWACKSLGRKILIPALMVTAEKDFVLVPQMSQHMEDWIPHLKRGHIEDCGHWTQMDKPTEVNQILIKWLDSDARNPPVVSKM
Method: (§1) Assays were performed in triplicate. […] The curve was generated from at least three separate runs, each in triplicate, to obtain the standard deviation (SD) given in Table 1 thru Table 4.

mouse sEH = molecular target: T2, mouse sEH (Mus musculus, UniProt P34914); assay: Inhibition of recombinant mouse sEH, IC50 assay with 4-nitrophenyl-trans-2,3-epoxy-3-phenylpropyl carbonate as substrate; type: biochemical
T2 construct: made in house; host or cells: baculovirus expression system
T2 sequence (P34914 1-554): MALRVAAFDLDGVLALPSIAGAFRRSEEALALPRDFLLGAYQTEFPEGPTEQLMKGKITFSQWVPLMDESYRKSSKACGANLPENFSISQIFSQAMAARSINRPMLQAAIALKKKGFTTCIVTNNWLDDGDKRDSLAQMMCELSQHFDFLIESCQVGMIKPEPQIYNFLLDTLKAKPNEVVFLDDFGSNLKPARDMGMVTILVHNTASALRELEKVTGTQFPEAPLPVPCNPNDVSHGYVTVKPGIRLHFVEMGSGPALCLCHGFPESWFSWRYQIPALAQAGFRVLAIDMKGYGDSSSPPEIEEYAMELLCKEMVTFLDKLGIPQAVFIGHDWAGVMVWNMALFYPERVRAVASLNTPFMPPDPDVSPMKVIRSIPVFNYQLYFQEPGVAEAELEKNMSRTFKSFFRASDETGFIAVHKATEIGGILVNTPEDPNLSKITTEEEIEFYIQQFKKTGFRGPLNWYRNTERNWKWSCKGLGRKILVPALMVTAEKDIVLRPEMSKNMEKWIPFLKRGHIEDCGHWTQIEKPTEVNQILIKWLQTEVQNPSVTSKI
Method: as §1

[1] = Tables 17a and b, read-out: IC50 (μM) Human sEH
[2] = Tables 17a and b, read-out: IC50 (μM) Mouse sEH
[3] = Table 7, established protocols, read-out: IC50 (μM) Human sEH
[4] = Table 7, established protocols, read-out: IC50 (μM) Mouse sEH
[5] = Table 9, established protocols, read-out: IC50 (μM) Human sEH
[6] = Table 9, established protocols, read-out: IC50 (μM) Mouse sEH

Work on `CCCCC(CC)OC(=O)CCCNC(=O)NC12CC3CC(CC(C3)C1)C2` (stereo not shown) [Compound 905] yielded an IC50 (human sEH; [1]) of 0.45 ± 0.01 µM and an IC50 (mouse sEH; [2]) of 0.13 ± 0.01 µM.
`CCCCCOC(=O)C1CCCC(NC(=O)NC23CC4CC(CC(C4)C2)C3)C1` (stereo not shown) [Compound 906] showed an IC50 (human sEH) of 0.1 ± 0.01 µM and an IC50 (mouse sEH; [2]) of 0.05 ± 0.01 µM.
Compound `CN(C)c1cccc2c(S(=O)(=O)NCCNC(=O)NC34CC5CC(CC(C5)C3)C4)cccc12` [Compound 907] has an IC50 (human sEH; [1]) of 0.6 ± 0.01 µM and an IC50 (mouse sEH; [2]) of 0.4 ± 0.01 µM.
For `CCCCC(CC)OCCCCCNC(=O)NC12CC3CC(CC(C3)C1)C2` (stereo not shown) [Compound 910], the IC50 (human sEH; [1]) was 0.24 ± 0.01 µM and the IC50 (mouse sEH; [2]) was 0.05 ± 0.01 µM.
For `CC(=O)Nc1ccc(CC(=O)NC23CC4CC(CC(C4)C2)C3)cc1` [Compound 912], the IC50 (human sEH; [1]) was 35 ± 0.01 µM and the IC50 (mouse sEH; [2]) was 4.1 ± 0.01 µM.
`C#COCCOCCCCCNC(=O)NC12CC3CC(CC(C3)C1)C2` [Compound 913] showed an IC50 (human sEH; [3]) of 0.1 ± 0.01 µM and an IC50 (mouse sEH; [4]) of 0.05 ± 0.01 µM.
In the case of `O=C(CCCCCCCCCCCNC(=O)NC12CC3CC(CC(C3)C1)C2)NS(=O)(=O)c1ccccc1` [Compound 914], the IC50 (human sEH; [1]) is reported as 0.1 ± 0.01 µM and the IC50 (mouse sEH) is reported as 0.05 ± 0.01 µM.
In the case of `CC(C)=CCCC(C)CCOCCCCCNC(=O)NC12CC3CC(CC(C3)C1)C2` (stereo not shown) [Compound 915], the IC50 (human sEH; [1]) is reported as 0.12 ± 0.01 µM and the IC50 (mouse sEH; [2]) is reported as 0.05 ± 0.01 µM.
`CCOC(=O)c1ccc(COC(=O)C2CCCC(NC(=O)NC34CC5CC(CC(C5)C3)C4)C2)cc1` (stereo not shown) [Compound 942] gave an IC50 (human sEH; [1]) of 0.1 ± 0.01 µM and an IC50 (mouse sEH; [2]) of 0.05 ± 0.01 µM.
For `CCCCC(C)OC(=O)CCCNC(=O)NC12CC3CC(CC(C3)C1)C2` (stereo not shown) [Compound 943], the IC50 (human sEH; [1]) was 0.13 ± 0.01 µM and the IC50 (mouse sEH; [2]) was 0.05 ± 0.01 µM.
Work on `CCCCC(C#N)OC(=O)CCCNC(=O)NC12CC3CC(CC(C3)C1)C2` (stereo not shown) [Compound 944] yielded an IC50 (human sEH) of 0.2 ± 0.01 µM and an IC50 (mouse sEH; [2]) of 0.05 ± 0.01 µM.
In the case of `O=C(NCCCC(=O)OCc1ccccc1)NC12CC3CC(CC(C3)C1)C2` [Compound 945], the IC50 (human sEH; [1]) is reported as 0.19 ± 0.01 µM and the IC50 (mouse sEH; [2]) is reported as 0.05 ± 0.01 µM.
Compound `N#CC(OC(=O)CCCNC(=O)NC12CC3CC(CC(C3)C1)C2)c1ccccc1` (stereo not shown) [Compound 946] has an IC50 (human sEH; [1]) of 0.15 ± 0.01 µM and an IC50 (mouse sEH; [2]) of 0.05 ± 0.01 µM.
Compound `CCOC(=O)c1ccc(C(C#N)OC(=O)CCCNC(=O)NC23CC4CC(CC(C4)C2)C3)cc1` (stereo not shown) [Compound 947] has an IC50 (human sEH; [1]) of 0.11 ± 0.01 µM and an IC50 (mouse sEH; [2]) of 0.07 ± 0.01 µM.
With `CCOC(=O)c1ccc(C(C)OC(=O)CCCNC(=O)NC23CC4CC(CC(C4)C2)C3)cc1` (stereo not shown) [Compound 948] the IC50 (human sEH; [1]) was 0.12 ± 0.01 µM and the IC50 (mouse sEH; [2]) was 0.08 ± 0.01 µM.
`CCOC(=O)c1ccc(C(OC(=O)CCCNC(=O)NC23CC4CC(CC(C4)C2)C3)c2ccccc2)cc1` (stereo not shown) [Compound 949] gave an IC50 (human sEH; [1]) of 0.1 ± 0.01 µM and an IC50 (mouse sEH; [2]) of 0.05 ± 0.01 µM.
`O=C(NCCCCCOCCOCCOCc1ccccc1)NC12CC3CC(CC(C3)C1)C2` [Compound 951] gave an IC50 (human sEH; [3]) of 0.1 ± 0.01 µM and an IC50 (mouse sEH; [4]) of 0.05 ± 0.01 µM.
`CCOC(=O)c1ccc(COCCOCCOCCCCCNC(=O)NC23CC4CC(CC(C4)C2)C3)cc1` [Compound 956] was tested, and the IC50 (human sEH; [1]) was 0.1 ± 0.01 µM and the IC50 (mouse sEH; [2]) was 0.05 ± 0.01 µM.
`O=C(NCCCCCOCCC(F)(F)F)NC12CC3CC(CC(C3)C1)C2` [Compound 957] gave an IC50 (human sEH; [1]) of 0.23 ± 0.01 µM and an IC50 (mouse sEH; [2]) of 0.05 ± 0.01 µM.
`CCCCCOC(=O)CCCn1ccn(C23CC4CC(CC(C4)C2)C3)c1=O` [Compound 958] showed an IC50 (human sEH; [1]) of 17 ± 0.01 µM and an IC50 (mouse sEH; [2]) of 0.7 ± 0.01 µM.
`O=C(CCCCCCOCCOCCOCc1ccccc1)NC12CC3CC(CC(C3)C1)C2` [Compound 959] gave an IC50 (human sEH; Table 8, established protocols, read-out: IC50 (μM) Human sEH) of 0.11 ± 0.02 µM and an IC50 (mouse sEH; Table 8, established protocols, read-out: IC50 (μM) Mouse sEH) of 0.05 ± 0.01 µM.
`CCCCCNC(=O)C1CCCC(NC(=O)NC23CC4CC(CC(C4)C2)C3)C1` (stereo not shown) [Compound 960] was tested, and the IC50 (human sEH; [5]) was 0.1 ± 0.01 µM and the IC50 (mouse sEH; [6]) was 0.05 ± 0.01 µM.
Compound `CCOC(=O)CCCCCCOC1CCC(NC(=O)NC23CC4CC(CC(C4)C2)C3)CC1` (stereo not shown) [Compound 961] has an IC50 (human sEH; [5]) of 0.1 ± 0.01 µM and an IC50 (mouse sEH; [6]) of 0.05 ± 0.01 µM.
